Assay results taken from US11236055B2 (Venenum Biodesign, LLC, priority 2016, dated 2022).

Experiments:
[1] = biological target: T1, human TGR5 receptor (Homo sapiens, UniProt Q8TDU6); assay: Human TGR5 cAMP production assay; type: cell-based; details: human TGR5, luminescent cAMP assay; coded A-D; read-out: Human TGR5 Lum. cAMP Activity (EC50)
T1 construct: host or cells: CHO-K1 (hTGR5-CHO cells)
T1 sequence (Q8TDU6 1-330): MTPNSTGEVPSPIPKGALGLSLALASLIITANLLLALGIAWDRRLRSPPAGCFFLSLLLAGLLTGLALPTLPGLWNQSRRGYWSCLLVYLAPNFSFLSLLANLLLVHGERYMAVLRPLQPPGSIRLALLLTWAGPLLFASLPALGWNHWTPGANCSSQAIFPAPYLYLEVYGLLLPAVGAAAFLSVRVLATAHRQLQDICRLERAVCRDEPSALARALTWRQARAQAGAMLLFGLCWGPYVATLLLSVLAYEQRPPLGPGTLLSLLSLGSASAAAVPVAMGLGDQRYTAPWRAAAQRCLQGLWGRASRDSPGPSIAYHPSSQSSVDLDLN
In short: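 Intracellular cAMP read by luminescent enzyme-complementation (XS+) after overnight development, following 1 h room-temperature compound treatment of hTGR5-CHO-K1 cells in IBMX plus anti-cAMP antibody. Compounds tested as half-log dilution series; EC50 derived.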

[2] = Pharmacokinetic profile in mice; type: in vivo; details: mouse; fasted male Hilltop mice, 10 mg/kg oral gavage, plasma, mean of three mice
Method: Pharmacokinetic Profile in Mice
In this series of studies, the pharmacokinetic profile characteristics of compounds of the present invention were evaluated. The plasma concentration levels of the compounds were monitored in the blood stream (i.e., plasma) after oral gavage using Cmax, and area under the curve (AUC).
8 week old male Hilltop mice were fasted overnight. Animals were randomized into groups (n=9) by body weight. Mice were dosed with 10 mg/kg compound (in 20% PEG400/80% 0.5% carboxymethylcellulose (medium viscosity)+0.25% Tween-80) at a volume of 10 mL/kg through oral gavage. Blood was collected via orbital bleeding at 0, 0.25, 0.5, 1, 2, and 4 h post-dose, with no one mouse having more than 3 blood draws. Blood was collected in EDTA coated tubes. Samples were stored at −20° C. until analysis.
Quantitation of compound levels in plasma was accomplished by LC-MS/MS analysis. Standard curve and quality control samples were prepared in male CD-1 mouse plasma containing EDTA K^2+ as an anticoagulant at final concentrations ranging from 500 to 0.1 ng/mL. The plasma samples, calibration curve standards, and quality control samples were prepared in an identical method in a 96-well deep plate (1 mL) with a quenching solution (1:1 mixed acetonitrile:methanol containing the internal standard Reserpine @ 400 ng/mL). Low volume samples were supplemented with CD-1 mouse plasma. The plate was mixed on multi-tube votex for 1 min and centrifuged at 4000 rpm for 30 min at 4° C. (Sorvall® Super T21) before LC-MS/MS analysis. LC conditions were developed and optimized based on each compound as needed. The outlet of the column was coupled to AB Sciex 4000 QTrap Mass Spectrometer (AB Sciex, Brugg Switzerland). Detection was carried out using multiple reaction monitoring mode with positive-ion detection focusing. The pharmacokinetic parameters were derived from the plasma-time data and calculated using the standard non-compartmental method with WinNonlin (Pharsight, Mountain View, Calif.) or PK Solver (Comp. Meth. Prog. Biomed. (2010), 99, 306-314).
Values reported are the mean plasma concentration of three mice.

| SMILES | EC50 [1] [nM] | Cmax [2] [ng/mL] |
| --- | --- | --- |
| CCc1cnccc1-c1cccc(C2CN(C(=O)CCC(=O)O)CCN2S(=O)(=O)c2cccc(Cl)c2C)c1 (racemic) [Compound 46, (+/−) 4-(4-((3-Chloro-2-methylphenyl)sulfonyl)-3-(3-(3-ethylpyridin-4-yl)phenyl)piperazin-1-yl)-4-oxobutanoic acid] | < 100 | 436 |
| Cc1cnccc1-c1cccc([C@H](C)N(CCCC(=O)NCCNS(=O)(=O)CCC(=O)O)S(=O)(=O)c2cccc(Cl)c2C)c1 [Compound 26AB] | < 100 | 2.6 |
| Cc1cnccc1-c1cccc([C@H](C)N(CCCC(=O)NCCNS(=O)(=O)CC(=O)O)S(=O)(=O)c2cccc(Cl)c2C)c1 [Compound 26AA] | < 100 | 1.4 |
| Cc1cnccc1-c1cccc([C@H](C)N(CCCCC(=O)NCCS(=O)(=O)NCCC(=O)O)S(=O)(=O)c2ccccc2C(F)(F)F)c1 [Compound 20BM] | < 100 | 0.6 |
| Cc1cnccc1-c1cccc([C@H](C)N(CCCC(=O)NCCS(=O)(=O)NCCC(=O)O)S(=O)(=O)c2cccc(Cl)c2C)c1 [Compound 21AL] | < 100 | 7.6 |
| Cc1cnccc1-c1cccc(C(C)(C)N(CCCNC(=O)NCCS(=O)(=O)O)S(=O)(=O)c2cccc(Cl)c2C)c1 [Compound 29AA, 2-(3-(3-((3-Chloro-2-methyl-N-(2-(3-(3-methylpyridin-4-yl)phenyl)propan-2-yl)phenyl)sulfonamide)propyl)ureido)ethane-1-sulfonic acid] | < 100 | 1.5 |
| CCc1cnccc1-c1cccc([C@H](C)N(CCCCNC(=O)NCS(=O)(=O)O)S(=O)(=O)c2ccccc2C(F)(F)F)c1 [Compound 28AH, (S)-(3-(4-(N-(1-(3-(3-ethylpyridin-4-yl)phenyl)ethyl)-2-(trifluoromethyl)phenylsulfonamido)butyl)ureido)methanesulfonic acid] | < 100 | 4.6 |
| Cc1cnccc1-c1cccc(C(C)(C)N(CCCNC(=O)NCS(=O)(=O)O)S(=O)(=O)c2cccc(Cl)c2C)c1 [Compound 29, (3-(3-((3-Chloro-2-methyl-N-(2-(3-(3-methylpyridin-4-yl)phenyl)propan-2-yl)phenyl)sulfonamide)propyl)ureido) methanesulfonic acid] | < 100 | 2.5 |
| Cc1cnccc1-c1cccc([C@H](C)N(CCCCNC(=O)NCS(=O)(=O)O)S(=O)(=O)c2ccccc2C(F)(F)F)c1 [Compound 28AC, (S)-(3-(4-(N-(1-(3-(3-methylpyridin-4-yl)phenyl)ethyl)-2-(trifluoromethyl)phenylsulfonamido)butyl)ureido)methanesulfonic acid] | < 100 | 0.8 |
| Cc1cnccc1-c1cccc(C(C)(C)N(CCCC(=O)NCS(=O)(=O)O)S(=O)(=O)c2ccccc2C(F)(F)F)c1 [Compound 20AB] | < 100 | 1.5 |
| Cc1cnccc1-c1cccc([C@H](C)N(CCCCNC(=O)[C@@H](N)CS(=O)(=O)O)S(=O)(=O)c2ccccc2C(F)(F)F)c1 [Compound 31AC, (R)-2-amino-3-((4-(N-((S)-1-(3-(3-methylpyridin-4-yl)phenyl)ethyl)-2-(trifluoromethyl)phenylsulfonamido)butyl)amino)-3-oxopropane-1-sulfonic acid] | < 100 | 1.8 |
| CCc1cnccc1-c1cccc([C@H](C)N(CCCC(=O)NC[C@@H](O)[C@H](O)[C@@H](O)[C@@H](O)CO)S(=O)(=O)c2cccc(Cl)c2C)c1 [Compound 20AN, 4-(3-chloro-N-((S)-1-(3-(3-ethylpyridin-4-yl)phenyl)ethyl)-2-methylphenylsulfonamido)-N-((2R,3S,4S,5S)-2,3,4,5,6-pentahydroxyhexyl)butanamide] | < 100 | 1.7 |
| Cc1cnccc1-c1cccc([C@H](C)N(CCCC(=O)NCCS(=O)(=O)NCC(=O)O)S(=O)(=O)c2cccc(Cl)c2C)c1 [Compound 21AN, (S) 2-(3-(4-(3-chloro-2-methyl-N-(1-(3-(3-methylpyridin-4-yl)phenyl)ethyl)phenylsulfonamido)butanamido)ethylsulfonamido)acetic acid] | < 100 | 1.9 |
| CCc1cnccc1-c1cccc(C(C)(C)NS(=O)(=O)c2ccccc2C(F)(F)F)c1 [Compound 5, N-(2-(3-(3-ethylpyridin-4-yl)phenyl)propan-2-yl)-2-(trifluoromethyl)benzenesulfonamide] | < 100 | 3.1 |
| Cc1cnccc1-c1cccc(C(C)(C)NS(=O)(=O)c2cccc(C(F)(F)F)c2)c1 [Compound 5AA, N-(2-(3-(3-methylpyridin-4-yl)phenyl)propan-2-yl)-3-(trifluoromethyl)benzenesulfonamide] | < 100 | 128 |
| Cc1cnccc1-c1cccc([C@H](C)N(CCCCC(=O)NCCS(=O)(=O)O)S(=O)(=O)c2cccc(Cl)c2C)c1 [Compound 20AH, (S)-2-(5-(3-chloro-2-methyl-N-(1-(3-(3-methylpyridin-4-yl)phenyl)ethyl)phenylsulfonamido)pentanamido)ethanesulfonic acid] | < 100 | 0.9 |
| CCc1cnccc1-c1cccc([C@H](C)N(CCCC(=O)NCCNS(N)(=O)=O)S(=O)(=O)c2cccc(Cl)c2C)c1 [Compound 37AA, (S)-4-(3-chloro-N-(1-(3-(3-ethylpyridin-4-yl)phenyl)ethyl)-2-methylphenylsulfonamido)-N-(2-(sulfamoylamino)ethyl)butanamide] | < 100 | 39.4 |
| Cc1cnccc1-c1cccc([C@H](C)N(CCCC(=O)NCCNS(=O)(=O)NCC(=O)O)S(=O)(=O)c2cccc(Cl)c2C)c1 [Compound 38] | < 100 | 3.6 |
| CCc1cnccc1-c1cccc(C2CN(C(=O)CS(=O)(=O)O)CCN2S(=O)(=O)c2cccc(Cl)c2C)c1 (stereo not drawn) [Compound 49, 2-(4-((3-Chloro-2-methylphenyl)sulfonyl)-3-(3-(3-ethylpyridin-4-yl)phenyl)piperazin-1-yl)-2-oxoethanesulfonic acid] | < 100 | 2.1 |
| Cc1cnccc1-c1cccc(C(C)(C)N(CCCC(=O)O)S(=O)(=O)c2ccccc2C(F)(F)F)c1 [Compound 14, 4-(N-(2-(3-(3-methylpyridin-4-yl)phenyl)propan-2-yl)-2-(trifluoromethyl)phenylsulfonamido)butanoic acid] | < 100 | 1080 |
| Cc1cnccc1-c1cccc([C@H](C)N(CCCCNC(=O)NCCS(=O)(=O)NCC(=O)O)S(=O)(=O)c2ccccc2C(F)(F)F)c1 [Compound 28AA, (S)-2-(3-(4-(N-(1-(3-(3-methylpyridin-4-yl)phenyl)ethyl)-2-(trifluoromethyl)phenylsulfonamido)butyl)ureido)ethanesulfonamido acetic acid] | < 100 | 0.7 |
| Cc1cnccc1-c1cccc([C@H](C)N(CCCCNC(=O)CS(=O)(=O)O)S(=O)(=O)c2ccccc2C(F)(F)F)c1 [Compound 31AA, (S)-2-((4-(N-(1-(3-(3-methylpyridin-4-yl)phenyl)ethyl)-2-(trifluoromethyl)phenylsulfonamido)butyl)amino)-2-oxoethanesulfonic acid] | < 100 | 4.4 |
| CCc1cnccc1-c1cccc([C@H](C)N(CCCC(=O)NCCS(=O)(=O)O)S(=O)(=O)c2ccccc2C)c1 [Compound 20AR, (S)-2-(4-(N-(1-(3-(3-ethylpyridin-4-yl)phenyl)ethyl)-2-methylphenyl-sulfonamido)butanamido)ethane sulfonic acid] | < 100 | 3.2 |
| CCc1cnccc1-c1cccc([C@H](C)N(CCCC(=O)NCCS(=O)(=O)NCC(=O)O)S(=O)(=O)c2ccccc2C)c1 [Compound 20BU, (S)-2-(4-(2-methyl-N-(1-(3-(3-ethylpyridin-4-yl)phenyl)ethyl)phenylsulfonamido)butanamidoethylsulfonamido)acetate] | < 100 | 1.1 |
